ChEMBL document CHEMBL1201862, “PubChem BioAssay data set” (2004)
Activity calls are given as the source filed them.

What was measured:
cells = assay type: functional, cell-based
[1] = biological target: T1, Nuclear receptor subfamily 0 group B member 1 (Homo sapiens, UniProt P51843); assay type: functional, cell-based;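 further: HEK293T cells transfected with SF-1 and DAX-1 plus StAR promoter luciferase reporter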
T1 sequence (P51843 whole entry): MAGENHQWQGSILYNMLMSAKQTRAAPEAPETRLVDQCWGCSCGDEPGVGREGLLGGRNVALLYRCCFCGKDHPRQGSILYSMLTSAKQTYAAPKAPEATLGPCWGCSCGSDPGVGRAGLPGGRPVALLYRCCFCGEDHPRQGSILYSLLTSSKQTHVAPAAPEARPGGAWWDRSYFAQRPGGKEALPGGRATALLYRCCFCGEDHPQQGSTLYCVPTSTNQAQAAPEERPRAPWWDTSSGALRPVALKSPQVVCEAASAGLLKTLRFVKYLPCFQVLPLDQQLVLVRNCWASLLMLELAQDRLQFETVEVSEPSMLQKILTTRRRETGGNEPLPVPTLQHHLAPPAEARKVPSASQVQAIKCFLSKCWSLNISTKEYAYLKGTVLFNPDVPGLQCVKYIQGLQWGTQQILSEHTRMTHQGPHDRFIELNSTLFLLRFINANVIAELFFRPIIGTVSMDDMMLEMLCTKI

[2] = biological target: T2, High affinity choline transporter 1 (Homo sapiens, UniProt Q9GZV3); assay: human choline transporter blockers, potency – cell-based, 5-point CRC, membrane potential dye, dose response (AID 504840); assay type: functional
T2 sequence (Q9GZV3 whole entry): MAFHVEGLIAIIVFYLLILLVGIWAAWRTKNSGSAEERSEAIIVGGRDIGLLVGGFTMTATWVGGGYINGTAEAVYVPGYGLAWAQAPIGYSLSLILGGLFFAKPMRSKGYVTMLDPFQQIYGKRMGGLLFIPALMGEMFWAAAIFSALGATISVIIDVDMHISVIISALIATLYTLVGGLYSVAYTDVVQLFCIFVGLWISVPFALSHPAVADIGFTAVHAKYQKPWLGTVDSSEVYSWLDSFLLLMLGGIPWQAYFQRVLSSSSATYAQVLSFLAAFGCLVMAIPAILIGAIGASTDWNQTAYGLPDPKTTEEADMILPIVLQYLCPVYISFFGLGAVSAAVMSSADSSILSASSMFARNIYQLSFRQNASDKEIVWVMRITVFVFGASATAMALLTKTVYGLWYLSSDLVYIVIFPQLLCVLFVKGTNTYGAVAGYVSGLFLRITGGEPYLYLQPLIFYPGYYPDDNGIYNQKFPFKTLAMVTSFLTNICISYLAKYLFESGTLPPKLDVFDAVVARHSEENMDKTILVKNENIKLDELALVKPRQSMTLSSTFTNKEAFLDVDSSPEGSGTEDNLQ

[3] = biological target: T2, High affinity choline transporter 1; assay: human choline transporter blockers, potency – cell-based, 10-point CRC, membrane potential dye, dose response (AID 588401); assay type: functional;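 further: membrane potential dye fluorescence of choline-evoked depolarization via CHT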

Question: For `O=C(Nc1c(C(=O)N2CCC(N3CCCCC3)CC2)oc2ccccc12)c1ccc(F)cc1`, which IC50 (cells) is on record?
Answer: The IC50 was > 67.5 µM (inactive).

Question: And the IC50 [1]?
Answer: Its IC50 is > 67.5 µM (inactive).

Question: And the IC50 [2]?
Answer: The IC50 was 0.91 µM (active).

Question: What about the IC50 [3] of the same compound?
Answer: Its IC50 is 1.63 µM (active).
